Laboratory results as given in US11192894B2, “Cell impermeable coelenterazine analogues” (PROMEGA CORPORATION, priority 2016, dated 2021).

Columns and labels:
[1] = biological target: purified NANOLUC® Luciferase (Oplophorus gracilirostris, UniProt Q9GV45, A31E/A60N/A81I/F95D/I117V/K70R/L54V/L99Q/M102K/N193R/P142E/Q151K/Q38R/Q45L/V71I/Y165I); type: biochemical; details: for RLU at 100 uM: relative value, furimazine set to 1, purified NanoLuc, initial light output three minutes after substrate addition
Sequence of purified NANOLUC® Luciferase (Q9GV45 28-196 with tags or gaps with the stated changes limits assumed): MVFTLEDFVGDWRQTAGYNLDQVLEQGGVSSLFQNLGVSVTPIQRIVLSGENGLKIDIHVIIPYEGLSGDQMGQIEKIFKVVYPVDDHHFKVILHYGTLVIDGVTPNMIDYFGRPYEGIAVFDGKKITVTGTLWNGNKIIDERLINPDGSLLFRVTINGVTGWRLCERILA
Method: Each compound to be screened was dissolved in DMSO (5 mM) and then further diluted to 100 uM in NANO-GLO® Luciferase Assay Buffer. Each diluted substrate was then combined in equal volumes with purified NANOLUC® Luciferase diluted into CO2 independent media+10% FBS. Initial light output for each substrate was measured in a GloMax®-Multi+ luminometer three minutes after substrate addition and then at five minute intervals as a means to determine signal half-life. […] Km was calculated using GraphPad Prism using non linear Michaelis-Menten regression.

KDR:NanoLuc [2] = assay: Cell-based luciferase assay, HEK293 cells expressing KDR:NanoLuc (NanoLuc in the interior of the cell), ± extracellular inhibitor JRW-0344; details: HEK293 expressing KDR:Nluc; 10 μM substrate ± 20 μM JRW-0344; FIG. 2C
Method: (§1) FIGS. 2A-2D show extracellular bioluminescent activity of exemplary compounds in HEK293 cells. HEK293 cells were transfected with two different membrane bound NANOLUC® fusions: 1) NanoLuc:KDR, presenting NanoLuc on the outside of the membrane; 2) KDR:NanoLuc, presenting NanoLuc on the inside of the membrane. The cell impermeable NANOLUC® inhibitor JRW-0344 (disclosed in U.S. Ser. No. 15/192,420 to Duellman et al., “THIENOPYRROLE COMPOUNDS AND USES THEREOF,” filed Jun. 24, 2016), was added to the cells to inhibit extracellular bioluminescent activity.
(§2) HEK293 cells were maintained in DMEM containing 100 IU/ml penicillin, 100 μg/ml streptomycin, and 10% fetal calf serum at 37° C. in 5% CO2. Dulbecco's modified eagle medium (DMEM), Opti-MEM, Penicillin/Streptomycin, and Trypsin-EDTA are purchased from Life Technologies (Carlsbad). Fetal calf serum (FBS) is purchased from HyClone (GE Healthcare). Microtiter plates were purchased from Corning.
(§3) HEK293 cells were transiently transfected with two different integral membrane NanoLuc fusion proteins: 1) NanoLuc:KDR, presenting NanoLuc on the cell surface; 2) KDR:NanoLuc, presenting NanoLuc in the interior of the cell. After 24 hours, transfected cells were collected, resuspended in OptiM at 200,000 cell/ml and plated into wells of white, 96-well plates at 100 μL/well. For luminescent measurements, cells were treated with the indicated substrates at a final concentration of 10 μM or 20 μM in the presence or absence of 20 μM cell impermeable NanoLuc inhibitor JRW-0344. The luminescent signal was analyzed 3 minutes after substrate addition using a GLOMAX® Discover multimode detection plate reader (Promega).

NanoLuc:KDR = assay: Cell-based luciferase assay, HEK293 cells expressing NanoLuc:KDR (NanoLuc on the cell surface), ± extracellular inhibitor JRW-0344; details: 10 μM substrate ± 20 μM inhibitor, FIG. 2A
Method: as §1, §2, §3

KDR:NanoLuc [3] = assay: Lytic vs. live cell format, HEK293 cells expressing KDR:NanoLuc; type: cell-based; details: digitonin (lytic) or JRW-0344 (live), FIG. 3C
Method: (§4) FIGS. 3A-D show the activities of cell permeable and cell impermeable compounds at various substrate concentrations. HEK293 cells were transfected (1:100 carrier DNA) with the fusion protein KDR:NanoLuc, which presents membrane bound NanoLuc on the inside of the membrane. Cells were then treated with digitonin (for lytic format) or JRW-0344 (for live cell format). Both sets were treated with varying substrate concentrations to give Michaelis-Menten type plots. […] However, substrates that are cell impermeable (or mostly impermeable) show large differences between live and lytic cell formats (FIG. 3C).
as §4, with “HEK293” for “FIGS. 3A-D show the activities of cell permeable and cell impermeable compounds at various substrate concentrations. HEK293”, “digitonin to lyse the cell membrane” for “digitonin”, “format) to compare activity of cell permeable and non-cell permeable substrates.” for “format).”

[4] = system: Nluc-b2 adrenergic receptor (B2AR); assay: Bioluminescence imaging of Nluc-B2AR in HeLa cells; type: cell-based; details: 10 uM substrate, Olympus LV200, FIGS. 4A and 4B
Method: FIGS. 4A and 4B show the results of imaging of Nluc-B2AR in HeLa cells using furimazine and JRW-0769. HeLa cells were reverse transfected with an expression construct for Nluc-b2 adrenergic receptor (B2AR) and plated into a LabTEKII chambered coverslip (50,000 cells per well in 400 uL medium) and incubated overnight. For imaging, the medium was removed and replaced with CO2-independent medium. Immediately before placing the sample onto the imaging instrument, Furimazine or JRW-0769 was added to the cells at a final concentration of 10 uM. Image acquisition was performed on an Olympus LV200 bioluminescence imager using a 40×/0.95 NA objective with electromultiplying gain set to 400 and an acquisition time of 0.5 sec (Furimazine) and 2.5 sec (JRW-0769).
HeLa cells were reverse transfected with an expression construct for Nluc-b2 adrenergic receptor (B2AR) and plated into a LabTEKII chambered coverslip (50,000 cells per well in 400 uL medium) and incubated overnight. For imaging, the medium was removed and replaced with CO2-independent medium. Immediately before placing the sample onto the imaging instrument, Furimazine or JRW-0769 was added to the cells at a final concentration of 10 uM. […]

For `O=C(O)CCCCCOc1cccc(Cc2nc3c(Cc4ccccc4)[nH]c(-c4ccccc4)cn-3c2=O)c1` [JRW-0684, 6-(3-((8-benzyl-3-oxo-6-phenyl-3,7-dihydroimidazo[1,2-a]pyrazin-2-yl)methyl)phenoxy)hexanoic acid], the “RLU at 100 uM” value [1] was 0.0057, the “RLU and effect of the extracellular inhibitor” value (KDR:NanoLuc [2]) was “not affected by the extracellular inhibitor” and the “Difference in RLU's in the presence and absence of the extracellular inhibitor” value (shortened to “Difference … of the extracellular inhibitor”) (NanoLuc:KDR) was “Small differences in RLU's”.

With `NCCCCCCOc1cccc(Cc2nc3c(Cc4ccccc4)[nH]c(-c4ccccc4)cn-3c2=O)c1` [TAK-0039, 2-(3-((6-aminohexyl)oxy)benzyl)-8-benzyl-6-phenylimidazo[1,2-a]pyrazin-3(7H)-one] the “RLU at 100 uM” value [1] was 0.0077, the “RLU and effect of the extracellular inhibitor” value (KDR:NanoLuc [2]) was “not affected by the extracellular inhibitor” and the “Difference … of the extracellular inhibitor” value (NanoLuc:KDR) was “Small differences in RLU's”.

In the case of `O=c1c(Cc2ccc(OCCCCCCBr)c(Cl)c2)nc2c(Cc3ccccc3)[nH]c(-c3ccccc3)cn1-2` [JRW-0720, 8-benzyl-2-(4-((6-bromohexyl)oxy)-3-chlorobenzyl)-6-phenylimidazo[1,2-a]pyrazin-3(7H)-one], the “RLU at 100 uM” value [1] is reported as 0.0085, the “RLU and effect of the extracellular inhibitor” value (KDR:NanoLuc [2]) is reported as “not affected by the extracellular inhibitor” and the “Difference … of the extracellular inhibitor” value (NanoLuc:KDR) is reported as “Small differences in RLU's”.

For `O=c1c(Cc2cccc(OCCCCCCS(=O)(=O)[O-])c2)nc2c(Cc3ccccc3)[nH]c(-c3ccccc3)cn1-2.[Na+]` [JRW-0703, sodium 6-(3-((8-benzyl-3-oxo-6-phenyl-3,7-dihydroimidazo[1,2-a]pyrazin-2-yl)methyl)phenoxy)hexane-1-sulfonate], the “RLU at 100 uM” value [1] was 0.016, the “Lowered activity in the live cell format versus lytic format” value (KDR:NanoLuc [3]) was 100 fold and the “RLU and effect of the extracellular inhibitor” value (KDR:NanoLuc [2]) was “much dimmer and can be inhibited close to background level”. For the same compound, the “Difference … of the extracellular inhibitor” value (NanoLuc:KDR) was “Larger differences in RLU's”.

For `O=c1c(Cc2ccc(OCCCCCCS(=O)(=O)[O-])c(F)c2)nc2c(Cc3ccccc3)[nH]c(-c3ccccc3)cn1-2.[Na+]` [JRW-0769, sodium 6-(4-((8-benzyl-3-oxo-6-phenyl-3,7-dihydroimidazo[1,2-a]pyrazin-2-yl)methyl)-2-fluorophenoxy)hexane-1-sulfonate], the “RLU at 100 uM” value [1] was 0.1, the “Lowered activity in the live cell format versus lytic format” value (KDR:NanoLuc [3]) was 100 fold and the “RLU and effect of the extracellular inhibitor” value (KDR:NanoLuc [2]) was “much dimmer and can be inhibited close to background level”. The “Localization of the imaged Nluc-B2AR signal” value [4] was “limited to membrane-localized receptor” and the “Difference … of the extracellular inhibitor” value (NanoLuc:KDR) was “Larger differences in RLU's”.

`O=c1c(Cc2ccc(OCCCCCCS(=O)(=O)[O-])c(Cl)c2)nc2c(Cc3ccccc3)[nH]c(-c3ccccc3)cn1-2.[Na+]` [JRW-0728, sodium 6-(4-((8-benzyl-3-oxo-6-phenyl-3,7-dihydroimidazo[1,2-a]pyrazin-2-yl)methyl)-2-chlorophenoxy)hexane-1-sulfonate] was tested, and the “RLU at 100 uM” value [1] was 0.14, the “Lowered activity in the live cell format versus lytic format” value (KDR:NanoLuc [3]) was 100 fold and the “RLU and effect of the extracellular inhibitor” value (KDR:NanoLuc [2]) was “much dimmer and can be inhibited close to background level”. For the same compound, the “Difference … of the extracellular inhibitor” value (NanoLuc:KDR) was “Larger differences in RLU's”.

In the case of `O=c1c(Cc2ccco2)nc2c(Cc3ccccc3)[nH]c(-c3ccccc3)cn1-2` [Furimazine, reference compound], the “RLU (absolute light output that is set to 1)” value ([1]; 2.5 ng/mL NanoLuc) is reported as ~1.0×10^7 RLU, the “RLU at 100 uM” value [1] is reported as 1 and the “Localization of the imaged Nluc-B2AR signal” value [4] is reported as “intracellular Nluc-B2AR”.
